The assay deals with MV-4-11 cells. The assay can be described thus: Gene expression microarray analysis (Affymetrix PrimeView) and GSEA. Format: cell-based, human. Further details: RFU PODN (11730768_x_at) / Fold change /veh PODN (11730768_x_at) / RFU LINC00158 (11744669_a_at) / Fold change /veh LINC00158 (11744669_a_at) / RFU DUSP10 (11751237_a_at) / Fold change /veh DUSP10 (11751237_a_at) / RFU ID3 (11757404_x_at) / Fold change /veh ID3 (11757404_x_at) / RFU PLEKHG5 (11737974_s_at) / Fold change /veh PLEKHG5 (11737974_s_at) / RFU LRRC4B (11730491_at) / Fold change /veh LRRC4B (11730491_at) / RFU GIMAP4 (11747438_a_at) / Fold change /veh GIMAP4 (11747438_a_at) / RFU KRT8 (11758183_x_at) / Fold change /veh KRT8 (11758183_x_at) / RFU CNN1 (11734310_a_at) / Fold change /veh CNN1 (11734310_a_at) / RFU VPS37D (11726825_at) / Fold change /veh VPS37D (11726825_at) / RFU C10orf10 (11716522_x_at) / Fold change /veh C10orf10 (11716522_x_at) / RFU KIR2DL2 /// KIR2DL4 /// KIR2DL5A /// KIR2DL5B /// KIR2DS1 /// KIR2DS2 /// KIR2DS3 /// KIR2DS4 /// KIR3DL3 /// KIR3DL3 /// KIR3DS1 (11738374_at) / Fold change /veh KIR2DL2 /// KIR2DL4 /// KIR2DL5A /// KIR2DL5B /// KIR2DS1 /// KIR2DS2 /// KIR2DS3 /// KIR2DS4 /// KIR3DL3 /// KIR3DL3 /// KIR3DS1 (11738374_at) / RFU C1QL1 (11718748_at) / Fold change /veh C1QL1 (11718748_at) / RFU TMPRSS4 (11747572_a_at) / Fold change /veh TMPRSS4 (11747572_a_at) / RFU HAMP (11756126_x_at) / Fold change /veh HAMP (11756126_x_at) / RFU RNFT2 (11725882_a_at) / Fold change /veh RNFT2 (11725882_a_at) / RFU NR4A2 (11747474_a_at) / Fold change /veh NR4A2 (11747474_a_at) / RFU ABCC12 (11746883_a_at) / Fold change /veh ABCC12 (11746883_a_at) / RFU TMEM136 (11760407_x_at) / Fold change /veh TMEM136 (11760407_x_at) / RFU CLDN22 /// WWC2 (11732394_at) / Fold change /veh CLDN22 /// WWC2 (11732394_at) / RFU HLA-DPB1 (11760878_x_at) / Fold change /veh HLA-DPB1 (11760878_x_at) / RFU SPINT1 (11716480_a_at) / Fold change /veh SPINT1 (11716480_a_at) / RFU GAP43 (11754022_s_at) / Fold change /veh GAP43 (11754022_s_at) / RFU A4GNT (11735810_at) / Fold change /veh A4GNT (11735810_at) / RFU PRB3 (11715151_x_at) / Fold change /veh PRB3 (11715151_x_at) / RFU TUBB4B (11761932_at) / Fold change /veh TUBB4B (11761932_at) / RFU CAPN14 (11732068_a_at) / Fold change /veh CAPN14 (11732068_a_at) / RFU TMCC2 (11721928_a_at) / Fold change /veh TMCC2 (11721928_a_at) / RFU IRGQ (11745062_a_at) / Fold change /veh IRGQ (11745062_a_at) / RFU FAM174B (11720279_a_at) / Fold change /veh FAM174B (11720279_a_at) / RFU TMPRSS4 (11748680_a_at) / Fold change /veh TMPRSS4 (11748680_a_at) / RFU FAM212B (11763350_a_at) / Fold change /veh FAM212B (11763350_a_at) / RFU PLEKHG5 (11743358_a_at) / Fold change /veh PLEKHG5 (11743358_a_at) / RFU ZSCAN30 (11745921_a_at) / Fold change /veh ZSCAN30 (11745921_a_at) / RFU CMKLR1 (11741424_a_at) / Fold change /veh CMKLR1 (11741424_a_at) / RFU LOC101060620 /// MAPK8IP1 (11723275_at) / Fold change /veh LOC101060620 /// MAPK8IP1 (11723275_at) / RFU SPTSSB (11747773_x_at) / Fold change /veh SPTSSB (11747773_x_at) / RFU PRSS12 (11739890_at) / Fold change /veh PRSS12 (11739890_at) / RFU BIN1 (11741810_x_at) / Fold change /veh BIN1 (11741810_x_at) / RFU WNT11 (11732464_a_at) / Fold change /veh WNT11 (11732464_a_at) / RFU C10orf10 (11716521_a_at) / Fold change /veh C10orf10 (11716521_a_at) / RFU C5orf56 (11738089_at) / Fold change /veh C5orf56 (11738089_at) / RFU CYB561 (11721691_x_at) / Fold change /veh CYB561 (11721691_x_at) / RFU ANKRD19P (11752326_a_at) / Fold change /veh ANKRD19P (11752326_a_at) / RFU OR2T12 /// OR2T33 /// OR2T8 (11738714_s_at) / Fold change /veh OR2T12 /// OR2T33 /// OR2T8 (11738714_s_at) / RFU VCAN (11748164_a_at) / Fold change /veh VCAN (11748164_a_at) / RFU JSRP1 (11732532_at) / Fold change /veh JSRP1 (11732532_at) / RFU KRTAP10-11 (11738290_x_at) / Fold change /veh KRTAP10-11 (11738290_x_at) / RFU MYO3A (11730013_a_at) / Fold change /veh MYO3A (11730013_a_at) / RFU EBF3 (11725865_a_at) / Fold change /veh EBF3 (11725865_a_at) / RFU CAMK2N1 (11719241_x_at) / Fold change /veh CAMK2N1 (11719241_x_at) / RFU C5orf56 (11738088_a_at) / Fold change /veh C5orf56 (11738088_a_at) / RFU OLFML3 (11715873_a_at) / Fold change /veh OLFML3 (11715873_a_at) / RFU LOC100653217 /// NTM (11731650_a_at) / Fold change /veh LOC100653217 /// NTM (11731650_a_at) / RFU MAPK11 (11762145_a_at) / Fold change /veh MAPK11 (11762145_a_at) / RFU FIZ1 (11724087_x_at) / Fold change /veh FIZ1 (11724087_x_at) / RFU OASL (11726364_x_at) / Fold change /veh OASL (11726364_x_at) / RFU SOX15 (11748057_x_at) / Fold change /veh SOX15 (11748057_x_at) / RFU CD79A (11719716_a_at) / Fold change /veh CD79A (11719716_a_at) / RFU HIST1H1D (11736915_at) / Fold change /veh HIST1H1D (11736915_at) / RFU CASKIN2 (11723855_a_at) / Fold change /veh CASKIN2 (11723855_a_at) / RFU LOC730098 (11760151_x_at) / Fold change /veh LOC730098 (11760151_x_at) / RFU OR4N2 (11742367_at) / Fold change /veh OR4N2 (11742367_at) / RFU PRRT2 (11749266_a_at) / Fold change /veh PRRT2 (11749266_a_at) / RFU SNX32 (11753110_a_at) / Fold change /veh SNX32 (11753110_a_at) / RFU CDHR5 (11726645_a_at) / Fold change /veh CDHR5 (11726645_a_at) / RFU RCAN1 (11760418_a_at) / Fold change /veh RCAN1 (11760418_a_at) / RFU FAM167A (11723789_a_at) / Fold change /veh FAM167A (11723789_a_at) / RFU FAM26E (11764081_at) / Fold change /veh FAM26E (11764081_at) / RFU ISYNA1 (11749810_s_at) / Fold change /veh ISYNA1 (11749810_s_at) / RFU ACY1 (11761880_at) / Fold change /veh ACY1 (11761880_at) / RFU 11764098_at / Fold change /veh 11764098_at / RFU SAMD14 (11745864_x_at) / Fold change /veh SAMD14 (11745864_x_at) / RFU NPB (11741838_a_at) / Fold change /veh NPB (11741838_a_at) / RFU TMPRSS6 (11731388_a_at) / Fold change /veh TMPRSS6 (11731388_a_at) / RFU KRTAP10-2 (11738614_at) / Fold change /veh KRTAP10-2 (11738614_at) / RFU ARHGAP8 /// PRR5-ARHGAP8 (11727945_x_at) / Fold change /veh ARHGAP8 /// PRR5-ARHGAP8 (11727945_x_at) / RFU KRTAP5-7 /// NADSYN1 (11734609_at) / Fold change /veh KRTAP5-7 /// NADSYN1 (11734609_at) / RFU RASL12 (11751679_a_at) / Fold change /veh RASL12 (11751679_a_at) / RFU CDKN2B (11736163_a_at) / Fold change /veh CDKN2B (11736163_a_at) / RFU PRF1 (11729649_at) / Fold change /veh PRF1 (11729649_at) / RFU, ZNF638 /// ZNF638-IT1 / Fold change vs veh, ZNF638 /// ZNF638-IT1 / RFU, PANK3 / Fold change vs veh, PANK3 / RFU, SH3YL1 / Fold change vs veh, SH3YL1 / RFU, ZEB2 / Fold change vs veh, ZEB2 / RFU, NRIP1 / Fold change vs veh, NRIP1 / RFU, PTTG1IP / Fold change vs veh, PTTG1IP / RFU, CAPN2 / Fold change vs veh, CAPN2 / RFU, MED14 / Fold change vs veh, MED14 / RFU, SNORA58 / Fold change vs veh, SNORA58 / RFU, C1orf63 / Fold change vs veh, C1orf63 / RFU, LRRFIP1 / Fold change vs veh, LRRFIP1 / RFU, NDUFAF7 / Fold change vs veh, NDUFAF7 / RFU, SLC12A2 / Fold change vs veh, SLC12A2 / RFU, IBTK / Fold change vs veh, IBTK / RFU, ESF1 / Fold change vs veh, ESF1 / Fold change vs veh, TMEM50B / RFU, TAOK1 / Fold change vs veh, TAOK1 / RFU, ACBD3 / Fold change vs veh, ACBD3 / RFU, TMA16 / Fold change vs veh, TMA16 / RFU, RWDD3 / Fold change vs veh, RWDD3 / RFU, BCAT1 / Fold change vs veh, BCAT1 / RFU, EDEM3 / Fold change vs veh, EDEM3 / RFU, TMEM33 / Fold change vs veh, TMEM33 / RFU, WDR75 / Fold change vs veh, WDR75 / RFU, AHCTF1 / Fold change vs veh, AHCTF1 / RFU, TFRC / Fold change vs veh, TFRC / RFU, ZDHHC17 / Fold change vs veh, ZDHHC17 / RFU, NOM1 / Fold change vs veh, NOM1 / RFU, ARL8B / Fold change vs veh, ARL8B / RFU, ZBTB11 / Fold change vs veh, ZBTB11 / RFU, TAMM41 / Fold change vs veh, TAMM41 / RFU, KIAA1704 /// LOC100996395 / Fold change vs veh, KIAA1704 /// LOC100996395 / RFU, ING1 / Fold change vs veh, ING1 / RFU, TRMT61B / Fold change vs veh, TRMT61B / RFU, FUBP3 / Fold change vs veh, FUBP3 / RFU, TP53 / Fold change vs veh, TP53 / RFU, TNKS2 / Fold change vs veh, TNKS2 / RFU, ZFP14 / Fold change vs veh, ZFP14 / RFU, ACTR2 / Fold change vs veh, ACTR2 / RFU, PPP3R1 / Fold change vs veh, PPP3R1 / RFU, PIK3R1 / Fold change vs veh, PIK3R1 / RFU, HNRNPA1 / Fold change vs veh, HNRNPA1 / RFU, RNF170 / Fold change vs veh, RNF170 / RFU, ZNF28 / Fold change vs veh, ZNF28 / RFU, RNGTT / Fold change vs veh, RNGTT / RFU, OGT / Fold change vs veh, OGT / RFU, BRD1 / Fold change vs veh, BRD1 / RFU, MARS / Fold change vs veh, MARS / RFU, ZNF655 / Fold change vs veh, ZNF655 / RFU, FAHD1 / Fold change vs veh, FAHD1 / RFU, BDP1 / Fold change vs veh, BDP1 / RFU, LRRCC1 / Fold change vs veh, LRRCC1 / RFU, ARID1A / Fold change vs veh, ARID1A / RFU, ZNF146 / Fold change vs veh, ZNF146 / RFU, ZNF330 / Fold change vs veh, ZNF330 / RFU, GPN3 / Fold change vs veh, GPN3 / RFU, C9orf123 / Fold change vs veh, C9orf123 / RFU, N4BP2L2 / Fold change vs veh, N4BP2L2 / RFU, ARFIP1 / Fold change vs veh, ARFIP1 / RFU, FAM179B / Fold change vs veh, FAM179B / RFU, BCL10 / Fold change vs veh, BCL10 / RFU, UHRF1BP1L / Fold change vs veh, UHRF1BP1L / RFU, BET1 / Fold change vs veh, BET1 / RFU, CNOT2 / Fold change vs veh, CNOT2 / RFU, ZNF268 / Fold change vs veh, ZNF268 / Fold change vs veh, ZNF507 / RFU, DGCR2 / Fold change vs veh, DGCR2 / RFU, WDSUB1 / Fold change vs veh, WDSUB1 / Fold change vs veh, HSP90B1 /// MIR3652 / RFU, ADSS / Fold change vs veh, ADSS / RFU, GK / Fold change vs veh, GK / RFU, ZNF148 / Fold change vs veh, ZNF148 / RFU, TAF9 / Fold change vs veh, TAF9 / RFU, SLC1A5 / Fold change vs veh, SLC1A5 / RFU, SLMO2 / Fold change vs veh, SLMO2 / RFU, ABCC4 / Fold change vs veh, ABCC4 / RFU, LOC101060439 /// RAP1B / Fold change vs veh, LOC101060439 /// RAP1B / RFU, RFX7 / Fold change vs veh, RFX7 / RFU, GTPBP10 / Fold change vs veh, GTPBP10 / RFU, CNEP1R1 / Fold change vs veh, CNEP1R1 / RFU, BIVM-ERCC5 /// ERCC5 / Fold change vs veh, BIVM-ERCC5 /// ERCC5 / RFU, ILF3 / Fold change vs veh, ILF3 / RFU 11762660_at / Fold change /veh 11762660_at / RFU VCAN (11757783_s_at) / Fold change /veh VCAN (11757783_s_at) / RFU DDX43 (11728927_at) / Fold change /veh DDX43 (11728927_at) / RFU KRT8 (11758188_x_at) / Fold change /veh KRT8 (11758188_x_at) / RFU NKD1 (11759106_at) / Fold change /veh NKD1 (11759106_at) / RFU SRD5A1 (11742802_a_at) / Fold change /veh SRD5A1 (11742802_a_at) / RFU TPSAB1 /// TPSB2 (11721975_s_at) / Fold change /veh TPSAB1 /// TPSB2 (11721975_s_at) / RFU GSTM3 (11746129_a_at) / Fold change /veh GSTM3 (11746129_a_at) / RFU IL23R (11737362_x_at) / Fold change /veh IL23R (11737362_x_at) / RFU TMEM51 (11727254_a_at) / Fold change /veh TMEM51 (11727254_a_at) / RFU PIWIL2 (11732686_x_at) / Fold change /veh PIWIL2 (11732686_x_at) / RFU ORM1 (11744905_x_at) / Fold change /veh ORM1 (11744905_x_at) / RFU CCDC152 (11743942_at) / Fold change /veh CCDC152 (11743942_at) / RFU ECM1 (11717891_a_at) / Fold change /veh ECM1 (11717891_a_at) / RFU IL23R (11748794_a_at) / Fold change /veh IL23R (11748794_a_at) / RFU TNFAIP8L3 (11732012_x_at) / Fold change /veh TNFAIP8L3 (11732012_x_at) / RFU MBOAT4 (11741988_at) / Fold change /veh MBOAT4 (11741988_at) / RFU 11764193_at / Fold change /veh 11764193_at / RFU TMEM53 (11763286_at) / Fold change /veh TMEM53 (11763286_at) / RFU MAGEB2 (11727129_at) / Fold change /veh MAGEB2 (11727129_at) / RFU TMEM200A (11744735_a_at) / Fold change /veh TMEM200A (11744735_a_at) / RFU CCDC152 (11751479_a_at) / Fold change /veh CCDC152 (11751479_a_at) / RFU FAM211A (11726209_a_at) / Fold change /veh FAM211A (11726209_a_at) / RFU RGS16 (11746705_a_at) / Fold change /veh RGS16 (11746705_a_at) / RFU VCAN (11755009_s_at) / Fold change /veh VCAN (11755009_s_at) / RFU RHOB (11743442_s_at) / Fold change /veh RHOB (11743442_s_at) / RFU RGS16 (11720943_a_at) / Fold change /veh RGS16 (11720943_a_at) / RFU RGS16 (11720944_at) / Fold change /veh RGS16 (11720944_at) / RFU, VPS4B / Fold change vs veh, VPS4B / RFU, CREB1 / Fold change vs veh, CREB1 / RFU, DNAJC13 / Fold change vs veh, DNAJC13 / RFU, GNAQ / Fold change vs veh, GNAQ / RFU, CDK5R1 / Fold change vs veh, CDK5R1 / RFU, ZRANB3 / Fold change vs veh, ZRANB3 / RFU, CUL4A / Fold change vs veh, CUL4A / RFU, CCNY / Fold change vs veh, CCNY / RFU, UFL1 / Fold change vs veh, UFL1 / RFU, COG3 / Fold change vs veh, COG3 / RFU, DIAPH2 / Fold change vs veh, DIAPH2 / RFU, SKA2 / Fold change vs veh, SKA2 / RFU, AFF3 / Fold change vs veh, AFF3 / RFU, LMF1 / Fold change vs veh, LMF1 / RFU, IPO11 / Fold change vs veh, IPO11 / RFU, DFFB / Fold change vs veh, DFFB / RFU, FOXP1 / Fold change vs veh, FOXP1 / RFU, CARD8 / Fold change vs veh, CARD8 / RFU, STRN3 / Fold change vs veh, STRN3 / RFU, ADK / Fold change vs veh, ADK / RFU, RASSF2 / Fold change vs veh, RASSF2 / RFU, WIPF1 / Fold change vs veh, WIPF1 / RFU, LARP1B / Fold change vs veh, LARP1B / RFU, RASA1 / Fold change vs veh, RASA1 / RFU, RB1 / Fold change vs veh, RB1 / RFU, PPFIA1 / Fold change vs veh, PPFIA1 / RFU, MAT2A / Fold change vs veh, MAT2A / RFU, CCT5 / Fold change vs veh, CCT5 / RFU, WDR92 / Fold change vs veh, WDR92 / RFU, CUX1 / Fold change vs veh, CUX1 / RFU, TTC7A / Fold change vs veh, TTC7A / RFU, TMEM135 / Fold change vs veh, TMEM135 / RFU, DEPTOR / Fold change vs veh, DEPTOR / RFU, CPM / Fold change vs veh, CPM / RFU, DNAJB6 / Fold change vs veh, DNAJB6 / RFU, CACNA2D3 / Fold change vs veh, CACNA2D3 / RFU, DTX4 / Fold change vs veh, DTX4 / RFU, TFCP2 / Fold change vs veh, TFCP2 / RFU, GMCL1 /// GMCL1P1 / Fold change vs veh, GMCL1 /// GMCL1P1 / RFU, AEBP2 / Fold change vs veh, AEBP2 / RFU, SNHG1 /// SNORD22 /// SNORD25 /// SNORD26 /// SNORD27 /// SNORD28 /// SNORD29 /// SNORD31 / Fold change vs veh, SNHG1 /// SNORD22 /// SNORD25 /// SNORD26 /// SNORD27 /// SNORD28 /// SNORD29 /// SNORD31 / Fold change (Aza/veh), C12orf56 (ProbeSet 11735607_a_at) / Fold change (ACY-1035/veh), C12orf56 (ProbeSet 11735607_a_at) / Fold change (Aza/veh), FGFR1OP (ProbeSet 11751329_s_at) / Fold change (ACY-1035/veh), FGFR1OP (ProbeSet 11751329_s_at) / Fold change (Aza/veh), VPS36 (ProbeSet 11739960_a_at) / Fold change (ACY-1035/veh), VPS36 (ProbeSet 11739960_a_at) / RFU SYPL1 (11715823_x_at) / Fold change /veh SYPL1 (11715823_x_at) / RFU IGFBP7 (11715501_s_at) / Fold change /veh IGFBP7 (11715501_s_at) / RFU REEP3 (11722064_at) / Fold change /veh REEP3 (11722064_at) / RFU IGLL1 (11728026_x_at) / Fold change /veh IGLL1 (11728026_x_at): dose or concentration left out as unconfirmed. Conditions: ProbeSet 11717876_a_at; LIST D.

`Nc1ccc(-c2cccs2)cc1NC(=O)c1ccc2c(c1)cc(C1CC1)n2CCN1CCOCC1` [ACY-1035]: the “RFU, PPFIA1” value is given as 30.94 RFU.

The values are drawn from publication PMC5218480 (PLoS ONE, 2017).
